In paper PMC8200818, “SPECT/CT Imaging, Biodistribution and Radiation Dosimetry of a ^177Lu-DOTA-Integrin αvβ6 Cystine Knot Peptide in a Pancreatic Cancer Xenograft Model” (Frontiers in Oncology, 2021):

Experiments:
[1] = target: T1, integrin αvβ6 (BxPC-3 cells) (Homo sapiens, UniProt P06756+P18564); assay: Competition binding assay, BxPC-3; conditions: BxPC-3
T1 construct: endogenous in cells; host or cells: BxPC-3 (whole adherent cells)
Method: (§1) The reaction volume was made up to 30 µl with water. The reaction was carried out for 10 minutes at 80°C.
(§2) For competitive radioligand binding assay, approximately 50,000 cells (BxPC-3 or Capan-2) per well were seeded in a 96 well plate incubated overnight at 37°C. […] After 2 hours of incubation, cells were washed for 2-3 times with ice-cold washing buffer (50 mM Tris-HCl, pH 7.4, 125 mM NaCl, 0.05% BSA) and lysed with 1 N NaOH (80 µl/well). The lysed cells were transferred to vials and measured in a gamma counter (Wallac 1470 Wizard, Perkin Elmer, Waltham, MA, USA). Obtained cpm values were plotted with GraphPad Prism and the data fitted using nonlinear regression (one site - fit Ki, one site - fit logIC50).
(§3) All statistical analyses were performed using GraphPad Prism 5.04. IC50 values were determined by nonlinear sigmoidal curve fitting with variable slope setting. All presented data are based on independent experiments. Numerical data for this study have been deposited in an open data repository for public access: http://doi.org/10.5281/zenodo.4362503.

Capan-2 xenografts = conditions: day 1 versus day 8 after injection; single dose; listed as DOTA-integrin αvβ6 knottin
[2] = target: T2, integrin αvβ6 (Capan-2 cells) (Homo sapiens, UniProt P06756+P18564); assay: Competition binding assay, Capan-2
T2 construct: endogenous in cells; host or cells: Capan-2 (whole adherent cells)
Method: as §1, §2, §3

integrin αvβ6 = conditions: cited from earlier work
Text: Cystine knot peptides (knottins) represent small peptides of approximately 4 kDa with three threaded disulfide bonds that form a rigid topological knot constraining the peptide’s conformational flexibility. Such a structural motif is known as a cystine knot ([21], [22]). One of the advantages of knottins is the high variability of backbone residues that may be used to modulate tumor and kidney uptake ([23]). Knottins are well suited for in vivo tumor-targeting applications as their disulfide-bonded core confers outstanding thermal stability and resistance against proteolytic degradation; moreo ...

[3] = cited from earlier work
[4] = displacement of ^125I-DOTA-integrin αvβ6 knottin (100,000 cpm), 2 h, pH 7.4, mean ± S.E.M. (3 ≤ n ≤ 4), read-out: Inhibitory constant (Ki)

T1 sequence (P06756 31-889 limits assumed): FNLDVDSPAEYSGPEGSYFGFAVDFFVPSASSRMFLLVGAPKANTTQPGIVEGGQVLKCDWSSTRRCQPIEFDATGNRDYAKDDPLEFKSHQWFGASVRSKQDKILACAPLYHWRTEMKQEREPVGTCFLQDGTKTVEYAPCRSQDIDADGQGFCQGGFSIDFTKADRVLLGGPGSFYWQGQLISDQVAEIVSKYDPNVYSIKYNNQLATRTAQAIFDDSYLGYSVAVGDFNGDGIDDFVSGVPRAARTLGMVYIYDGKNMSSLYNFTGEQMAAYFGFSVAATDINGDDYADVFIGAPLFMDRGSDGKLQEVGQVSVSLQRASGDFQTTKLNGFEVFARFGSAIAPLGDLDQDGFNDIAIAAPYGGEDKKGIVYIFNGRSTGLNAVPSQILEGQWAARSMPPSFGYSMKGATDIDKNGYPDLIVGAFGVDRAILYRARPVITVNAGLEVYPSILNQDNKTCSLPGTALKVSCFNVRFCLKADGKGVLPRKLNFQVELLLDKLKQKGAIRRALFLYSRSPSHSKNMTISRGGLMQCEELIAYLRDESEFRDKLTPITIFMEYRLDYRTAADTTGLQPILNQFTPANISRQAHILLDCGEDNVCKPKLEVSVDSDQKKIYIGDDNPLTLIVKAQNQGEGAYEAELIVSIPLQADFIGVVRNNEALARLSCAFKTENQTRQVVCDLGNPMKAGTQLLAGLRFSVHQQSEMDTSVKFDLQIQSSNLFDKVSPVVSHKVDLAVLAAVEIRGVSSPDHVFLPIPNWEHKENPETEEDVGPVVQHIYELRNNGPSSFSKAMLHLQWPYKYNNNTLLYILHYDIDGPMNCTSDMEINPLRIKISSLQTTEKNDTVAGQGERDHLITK
T1 sequence (P06756 891-1048 partner limits assumed): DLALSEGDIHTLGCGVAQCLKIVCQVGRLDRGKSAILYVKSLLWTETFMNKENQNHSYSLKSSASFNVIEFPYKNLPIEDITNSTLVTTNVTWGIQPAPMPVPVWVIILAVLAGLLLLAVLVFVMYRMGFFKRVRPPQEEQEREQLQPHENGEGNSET
T1 sequence (P18564 22-788): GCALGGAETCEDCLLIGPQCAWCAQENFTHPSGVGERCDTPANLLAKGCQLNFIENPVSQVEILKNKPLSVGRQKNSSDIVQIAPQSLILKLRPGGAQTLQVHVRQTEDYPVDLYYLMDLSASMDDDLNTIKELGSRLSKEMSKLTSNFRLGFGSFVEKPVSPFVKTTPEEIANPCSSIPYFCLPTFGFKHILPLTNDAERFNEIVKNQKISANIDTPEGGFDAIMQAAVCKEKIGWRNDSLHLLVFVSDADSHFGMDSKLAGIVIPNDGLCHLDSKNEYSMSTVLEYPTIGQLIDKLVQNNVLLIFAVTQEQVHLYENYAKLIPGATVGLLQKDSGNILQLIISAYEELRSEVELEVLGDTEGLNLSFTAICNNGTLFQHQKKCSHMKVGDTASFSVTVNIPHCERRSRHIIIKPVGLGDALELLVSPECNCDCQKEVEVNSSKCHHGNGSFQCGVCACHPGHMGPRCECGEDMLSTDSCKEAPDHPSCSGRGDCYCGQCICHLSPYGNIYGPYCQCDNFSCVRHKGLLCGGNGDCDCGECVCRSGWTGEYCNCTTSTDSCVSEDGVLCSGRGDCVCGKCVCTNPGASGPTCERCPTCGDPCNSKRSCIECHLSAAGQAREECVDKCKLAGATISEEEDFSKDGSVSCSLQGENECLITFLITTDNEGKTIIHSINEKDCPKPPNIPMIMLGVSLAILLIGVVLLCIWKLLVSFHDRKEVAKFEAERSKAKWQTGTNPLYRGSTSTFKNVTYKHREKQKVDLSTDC
T2 sequence (P06756 31-889 limits assumed): as the sequence (P06756 31-889 limits assumed) above
T2 sequence (P06756 891-1048 partner limits assumed): as the sequence (P06756 891-1048 partner limits assumed) above
T2 sequence (P18564 22-788): as the sequence (P18564 22-788) above

Row | SMILES | Ki [1, 4] | Tissue structure of xenografts (H&E) (Capan-2 xenografts) | Ki [2, 4] | Effect of DOTA / ^natLu chelation on affinity [1] | Effect of DOTA / ^natLu chelation on affinity [2] | Binding affinity for integrin αvβ6 (integrin αvβ6) | Stability and affinity to the receptor in vivo [3] | Tumor uptake (previous) ([3]; in vivo)
1 | CC[C@H](C)[C@@H]1NC(=O)[C@@H](NC(=O)CNC(=O)CN2CCN(CC(=O)O)CCN(CC(=O)O)CCN(CC(=O)O)CC2)CSSC[C@@H]2NC(=O)[C@H](C)NC(=O)CNC(=O)[C@@H]3CCCN3C(=O)[C@@H]3CSSC[C@@H](C(=O)NCC(=O)O)NC(=O)[C@H](Cc4ccc(O)cc4)NC(=O)CNC(=O)[C@H](CC(N)=O)NC(=O)CNC(=O)[C@H](CCCNC(=N)N)NC(=O)[C@H](CSSC[C@H](NC(=O)[C@H](CCCNC(=N)N)NC(=O)[C@H](Cc4ccccc4)NC(=O)[C@H](CC(C)C)NC(=O)[C@H](CC(C)C)NC(=O)[C@H]([C@@H](C)O)NC(=O)CNC(=O)[C@H](CC(C)C)NC(=O)[C@H](CC(=O)O)NC(=O)[C@H]([C@@H](C)O)NC(=O)[C@H](CCCNC(=N)N)NC(=O)CNC(=O)[C@H](CC(N)=O)NC(=O)[C@H](CC(C)C)NC1=O)C(=O)N[C@@H](CCCNC(=N)N)C(=O)N[C@@H](CCCNC(=N)N)C(=O)N[C@@H](CC(=O)O)C(=O)N[C@@H](CO)C(=O)N[C@@H](CC(=O)O)C(=O)N3)NC(=O)[C@H]([C@@H](C)CC)NC2=O [DOTA knottin] | 1.69 ± 1.3 nM | no significant impact was observed | 9.46 ± 5.21 nM | – | – | – | – | –
2 | CC[C@H](C)[C@@H]1NC(=O)[C@@H](NC(=O)CNC(=O)CN2CCN(CC(=O)O)CCN(CC(=O)O)CCN(CC(=O)O)CC2)CSSC[C@@H]2NC(=O)[C@H](C)NC(=O)CNC(=O)[C@@H]3CCCN3C(=O)[C@@H]3CSSC[C@@H](C(=O)NCC(=O)O)NC(=O)[C@H](Cc4ccc(O)cc4)NC(=O)CNC(=O)[C@H](CC(N)=O)NC(=O)CNC(=O)[C@H](CCCNC(=N)N)NC(=O)[C@H](CSSC[C@H](NC(=O)[C@H](CCCNC(=N)N)NC(=O)[C@H](Cc4ccccc4)NC(=O)[C@H](CC(C)C)NC(=O)[C@H](CC(C)C)NC(=O)[C@H]([C@@H](C)O)NC(=O)CNC(=O)[C@H](CC(C)C)NC(=O)[C@H](CC(=O)O)NC(=O)[C@H]([C@@H](C)O)NC(=O)[C@H](CCCNC(=N)N)NC(=O)CNC(=O)[C@H](CC(N)=O)NC(=O)[C@H](CC(C)C)NC1=O)C(=O)N[C@@H](CCCNC(=N)N)C(=O)N[C@@H](CCCNC(=N)N)C(=O)N[C@@H](CC(=O)O)C(=O)N[C@@H](CO)C(=O)N[C@@H](CC(=O)O)C(=O)N3)NC(=O)[C@H]([C@@H](C)CC)NC2=O [^natLu DOTA knottin, metal not drawn] | – | – | – | did not compromise the high affinity of the tracer | did not compromise the high affinity of the tracer | – | – | –
3 | CC[C@H](C)[C@@H]1NC(=O)[C@@H](NC(=O)CN)CSSC[C@@H]2NC(=O)[C@H](C)NC(=O)CNC(=O)[C@@H]3CCCN3C(=O)[C@@H]3CSSC[C@@H](C(=O)NCC(=O)O)NC(=O)[C@H](Cc4ccc(O)cc4)NC(=O)CNC(=O)[C@H](CC(N)=O)NC(=O)CNC(=O)[C@H](CCCNC(=N)N)NC(=O)[C@H](CSSC[C@H](NC(=O)[C@H](CCCNC(=N)N)NC(=O)[C@H](Cc4ccccc4)NC(=O)[C@H](CC(C)C)NC(=O)[C@H](CC(C)C)NC(=O)[C@H]([C@@H](C)O)NC(=O)CNC(=O)[C@H](CC(C)C)NC(=O)[C@H](CC(=O)O)NC(=O)[C@H]([C@@H](C)O)NC(=O)[C@H](CCCNC(=N)N)NC(=O)CNC(=O)[C@H](CC(N)=O)NC(=O)[C@H](CC(C)C)NC1=O)C(=O)N[C@@H](CCCNC(=N)N)C(=O)N[C@@H](CCCNC(=N)N)C(=O)N[C@@H](CC(=O)O)C(=O)N[C@@H](CO)C(=O)N[C@@H](CC(=O)O)C(=O)N3)NC(=O)[C@H]([C@@H](C)CC)NC2=O [knottin] | – | – | – | did not change upon either the addition of a DOTA chelator moiety or incorporation of natural non-radioactive lutetium | did not change upon either the addition of a DOTA chelator moiety or incorporation of natural non-radioactive lutetium | low single-digit nanomolar binding affinity | not compromised in vivo | favorable tumor uptake
